Reference: patent publication US20080175935A1, “Method to Treat Skin Conditions with Narcissus Tazetta Bulb Extract” (NuSkin International, Inc., priority 2004, published 2008)
“Also recorded” adds a separate entry of the source. One block for each molecule: values may come before it.

What was measured:
arNOX [1] = assay: arNOX assay: ferricytochrome c reduction (superoxide production) in sera; format: biochemical, human; conditions: for serum activity (cytochrome c reduction) in response to added reagent: sera of aged individuals; for oscillating activity in sera of aged individuals: FIG. 2G (SOD), FIG. 2H (coenzyme Q); for amount at which inhibition of age-related cytochrome c reduction reaches a plateau: sera; for further inhibition of ferric cytochrome c reduction when added after maximal inhibition by the other agent: serum, SOD 30 units and coenzyme Q 450 μg added sequentially, 300 sec; for inhibition of ferric cytochrome c reduction activity: untreated serum samples; for Inhibition by superoxide dismutase: sera from aged individuals; for Superoxide production (reduction of ferricytochrome c), with superoxide dismutase: sera of aged (80-98 y) individuals, n = 10
Excerpt: (§1) Reduction of ferric cytochrome c by superoxide was employed as a standard measure of superoxide formation (Mayo, L. A. and Cumutte, J. (1990) Meth. Enzyme. 186, 567-575. 7. Butler, J, Koppenol, W. H. and Margollash, E. (1982) J. Biol. Chem. 257, 10747).
Assays of ferric cytochrome c reduction in sera compared 53 samples from young (20 to 40 y) and 65 samples from aged (80 to 100) individuals. […]
(§2) Measurement of arNOX activity based on ferricytochrome c reduction as a measure of superoxide production were taken. The rate of reduction of ferricytochrome c was determined from the increase in absorbance at 550 nm with 540 nm as reference. This is a widely accepted method when coupled to superoxide dismutase inhibition for the measurement of superoxide generation. The assay consists of 150 μl (2 mg/ml) of oxidized ferricytochrome c solution and 150 μl serum or 40 μl buffy coats in PBSG buffer (8.06 g NaCl, 0.2 g KCl, 0.18 g Na2HPO4, 0.26 g KH2PO4, 0.13 g CaCl2, 0.1 g MgCl2, 1.35 g glucose dissolved in 1000 ml deionized water, adjusted to pH 7.4, filtered and stored at 4° C.). Rates were determined using a SLM Aminco DW-2000 spectrophotometer (Milton Roy, Rochester, N.Y., USA) in the dual wave length mode of operation with continuous measurements over 1 min every 1.5 min. After 45 min, test compound was added and the reaction was continued for 45 min. A millimolar extinction coefficient of 19.1 cm^−1 was used for reduced ferricytochrome c. (D. M. Morré, F. Guo and D. J. Morré, 2003, Mol. Cell. Biochem. 254: […]).

arNOX [2] = assay: arNOX assay: ferricytochrome c reduction (superoxide production) by buffy coats; format: cell-based, human; conditions: for arNOX inhibition, activity at a dilution of 1:50: dilution 1:50 (solids 2 mM), buffy coats from a person; for arNOX inhibition, activity at a dilution of 1:500: dilution 1:500; for arNOX inhibition, activity at a dilution of 1:500 / Rate of reduction of ferricytochrome c, +100 μM Q10: buffy coats; for oscillating activity of buffy coats and sera of aged individuals: FIG. 2, SOD 60 units or coenzyme Q 450 μg added after 45 min, 70-100 y; for Rate of reduction of ferricytochrome c, +100 μM Q10: mean ± SD, negative rates statistically zero
Protocol: as §1, with “10747). If superoxide dismutase was added to remove the superoxide as it was generated, the reduction of ferric cytochrome c was prevented to confirm that ferric cytochrome c reduction in the assay was due to superoxide.” for “10747).”
Buffy coats were pooled from aged individuals (70-100 y) and the reduction of ferric cytochrome c was observed (FIG. 2) with an oscillating activity. […] This oscillatory reduction of cytochrome c was absent from buffy coat fractions from younger (20-40 y) individuals (FIGS. 2A and 2B). […] The rate of coenzyme Q inhibited ferric cytochrome c reduction was 7-fold greater in buffy coat fractions of 90-94 y individuals as compared to 80-89 y individuals (Table 1). Buffy coats of less than 65 y individuals lacked the activity.
The compounds listed above in Table 4 were tested initially in the standard arNOX assay at a dilution of 1:50. Solids were prepared in water at an initial concentration of approximately 100 mM and then also tested at a dilution of 1:50, i.e., 2 mM. All compounds were evaluated using human buffy coats prepared from a person. Several compounds were evaluated with sera from aged patients as follow: IBR-DORMIN® Narcissus tazetta bulb extract (person), IBR-TOM® aqueous serum of tomato, available from Israeli Biotechnology Research Ltd. Corporation, Tel Aviv, Israel, (person), L-carnosine (person, person), L-ERGO® synthetically derived 1-ergothioneine, available from OXIS Health Products, Inc., Portland, Oreg. (person). Serum and buffy coats gave consistent results. Compounds active at 1:50 dilutions were reassayed with buffy coats at a dilution of 1:500 and compounds active at 1:500 were reassayed with buffy coats at a dilution of 1:5000.
Details of the assay protocol are as follow. Buffy coats, a mixture of lymphocytes and platelets, were obtained from a commercial supplier. The blood samples were maintained at 4° C. prior to collection and assay. Ca. 10^7 cells were added to each assay. Cell numbers were determined using a hemocytometer.
as §2

[3] = system: NADH cytochrome c reductase; assay: NADH cytochrome c reductase of pig liver microsomes; format: biochemical
Excerpt: (§3) However, the NADH-stimulated activity was about 4 nmoles/min/ml of sera for sera of both young and aged individuals. The aging-specific increment of ca. 2 nmoles/min/mg protein was observed both in the presence or absence of NADH.

[4] = system: NADH cytochrome c reductase; assay: NADH-cytochrome c reductase activity in serum; format: biochemical, human; conditions: serum of either young or aged individuals
Excerpt: as §3

Molecule: N[C@@H](CCC(=O)N[C@@H](CS)C(=O)NCC(=O)O)C(=O)O [GSH]
serum activity (cytochrome c reduction) in response to added reagent (arNOX [1]): neither stimulates nor inhibits

Molecule: C[N+](C)(C)[C@@H](Cc1c[nH]c(=S)[nH]1)C(=O)[O-] [L-Ergothioneine]
arNOX inhibition, activity at a dilution of 1:50 (arNOX [2]): mixed results
arNOX inhibition, activity at a dilution of 1:500 (arNOX [2]): inactive

Molecule: NCCC(=O)N[C@@H](Cc1cnc[nH]1)C(=O)O [L-carnosine, L-Carnosine]
effect on the arNOX activities of a serum sample (arNOX [1]; one experiment, serum sample containing 3 arNOX activities): inhibited one arNOX, stimulated a second arNOX and was without effect on a third

Molecule: Cc1cc(-c2ccccc2)c2ccc3c(-c4ccccc4)cc(C)nc3c2n1 [bathocuproene]
serum activity (cytochrome c reduction) in response to added reagent (arNOX [1]): unaffected

Molecule: Cc1cc(-c2ccc(S(=O)(=O)O)cc2)c2ccc3c(-c4ccc(S(=O)(=O)O)cc4)cc(C)nc3c2n1 [bathocuproenedisulforiate]
serum activity (cytochrome c reduction) in response to added reagent (arNOX [1]): unaffected

Molecule: COc1cc(CNC(=O)CCCC/C=C/C(C)C)ccc1O [capsaicin]
response of arNOX to the drug (arNOX [1]): does not respond

activity of authentic NADH cytochrome c reductase of pig liver microsomes [3]: did not significantly inhibit
activity of NADH cytochrome c reductase in serum [4]: Neither SOD nor coenzyme Q inhibited
EC50 (arNOX [2]; buffy coats pooled from aged individuals (70-100 y), read-out: EC50 for inhibition of oscillating reduction of ferric cytochrome c): 20 µM
Molecule: COC1=C(OC)C(=O)C(C/C=C(\C)CC/C=C(\C)CC/C=C(\C)CC/C=C(\C)CC/C=C(\C)CC/C=C(\C)CC/C=C(\C)CC/C=C(\C)CC/C=C(\C)CCC=C(C)C)=C(C)C1=O [coenzyme Q, ubiquinone-10]
oscillating activity in sera of aged individuals (arNOX [1]): eliminated; also recorded: largely blocked
amount at which inhibition of age-related cytochrome c reduction reaches a plateau (arNOX [1]; FIG. 4): about 450 μg
further inhibition of ferric cytochrome c reduction when added after maximal inhibition by the other agent (arNOX [1]): no further inhibition
inhibition of ferric cytochrome c reduction activity (arNOX [1]; 300 μg/ml): 40%
oscillating activity of buffy coats and sera of aged individuals (arNOX [2]): reduced to basal levels
oscillating reduction of ferric cytochrome c (arNOX [2]; buffy coats pooled from aged individuals (70-100 y), 100 μM coenzyme Q (FIG. 2D)): inhibited completely
Rate of reduction of ferricytochrome c, +100 μM Q10 (arNOX [2]; group 80-89 years): −0.03 ± 0.02 nmoles min^−1 10^7 cells^−1
Rate of reduction of ferricytochrome c, +100 μM Q10 (arNOX [2]; group 90-94 years): −0.07 ± 0.07 nmoles min^−1 10^7 cells^−1

Molecule: [Cu] [copper]
serum activity (cytochrome c reduction) in response to added reagent (arNOX [1]): did not enhance the activity

Molecule: OO [hydrogen peroxide]
serum activity after oxidation of protein SH (arNOX [1]; dilute (0.01%) hydrogen peroxide followed by catalase): inactive

Molecule: COC(=O)c1ccc(O)cc1 [methylparaben, Methylparaben]
effect on the two distinct arNOX activities of the buffy coats (arNOX [2]; buffy coats containing two distinct arNOX activities): inhibited one and had no effect on the other
arNOX inhibition, activity at a dilution of 1:50 (arNOX [2]): active
arNOX inhibition, activity at a dilution of 1:500 (arNOX [2]): inactive

Molecule: O=C(O)c1cc[c]([Hg][Cl])cc1 [p-chloromercuribenzoate]
serum activity (cytochrome c reduction) in response to added reagent (arNOX [1]): inhibited

Molecule: CCCOC(=O)c1ccc(O)cc1 [propylparaben, Propylparaben]
arNOX inhibition, activity at a dilution of 1:50 (arNOX [2]): active
arNOX inhibition, activity at a dilution of 1:500 (arNOX [2]): inactive

Molecule: (−)-epigallocatechin gallate
response of arNOX to the drug (arNOX [1]): does not respond

Molecule: Catalase
serum activity (cytochrome c reduction) in response to added reagent (arNOX [1]): without effect

Inhibition by superoxide dismutase (arNOX [1]; before proteinase K digestion): 40%
Inhibition by superoxide dismutase (arNOX [1]; following proteinase K digestion): 60%
Superoxide production (reduction of ferricytochrome c), with superoxide dismutase (arNOX [1]; after proteinase K): 0.22 ± 0.1 Nmoles/min/mi/sera
Superoxide production (reduction of ferricytochrome c), with superoxide dismutase (arNOX [1]; no proteinase K): 0.42 ± 0.1 Nmoles/min/mi/sera
activity of NADH cytochrome c reductase in serum [4]: Neither SOD nor coenzyme Q inhibited
Molecule: superoxide dismutase
oscillating activity in sera of aged individuals (arNOX [1]; listed as SOD): eliminated; also recorded: completely inhibited
amount at which inhibition of age-related cytochrome c reduction reaches a plateau (arNOX [1]; FIG. 3): 45 units
further inhibition of ferric cytochrome c reduction when added after maximal inhibition by the other agent (arNOX [1]): no further inhibition
inhibition of ferric cytochrome c reduction activity (arNOX [1]; 30 units/ml): 40±10%
oscillating activity of buffy coats and sera of aged individuals (arNOX [2]): reduced to basal levels
oscillating reduction of ferric cytochrome c (arNOX [2]; buffy coats pooled from aged individuals (70-100 y), SOD added (FIG. 2C)): inhibited completely
